These results are taken from patent US9018209B2, “Compounds and methods for the treatment of viruses and cancer” (Yale University, priority 2005, dated 2015).

Where two headings read alike, the source gives them in different places.

One series deals with IIIB strain of HIV-1. As to the kind of experiment: Anti-HIV-1 activity: protection of infected MT-2 cells, MTT colorimetric method. Type of series: cell-based. Conditions: for fold lower potency (higher EC50) than the corresponding DMA ether: Table 2b compounds. For orientation: Tetrazolium dyes change colour on reduction, which living cells bring about.
Another series relates to MT-2 human T-cells. As to the kind of experiment: Cytotoxicity: inhibition of MT-2 cell growth. It is filed as cell-based. The source says: The preparation of the analogues 4a-h involved the reaction between 2-bromothiazole 1 with the corresponding 5-amino-2-R-phenol 2, followed by reaction with 4-bromo-2-methyl-2-butene in presence of Cs2CO3 as a base (Scheme 1; see Table 1 for antiviral activities (EC50) and cytotoxicities (IC50) of these compounds, as determined using human MT-2 cells infected with IIIB strain of HIV-1).
See, Ruiz-Caro, supra. and Lin, et al., Biochem. Pharmacol. 1994, 47, 171-174.

Where [1] appears, read: Table 3, thiazoles 18-23, N/A read as no activity, read-out: EC50.
Where [2] appears, read: Table 3, cytotoxicity, MT-2 cells, read-out: IC50.
The mark [3] stands for this setting: Table 1, compounds 4a-h, human MT-2 cells infected with IIIB strain of HIV-1, N/A read as no activity, read-out: EC50.
Setting [4] is: Table 1, cytotoxicity, MT-2 cells, read-out: IC50.
The mark [5] stands for this setting: Table 1a, heteroaryl derivatives, N/A read as no activity, read-out: EC50.
[6] abbreviates: Table 1a, cytotoxicity, MT-2 cells, read-out: IC50.
Where [7] appears, read: Table 1B, for 50% protection in MT-2 cells, triplicate samples, NA for EC50 > CC50, read-out: EC50.
The mark [8] stands for this setting: Table 1B, for 50% inhibition of MT-2 cell growth, triplicate samples.
Where [9] appears, read: Human immunodeficiency virus 1, IIIB, MT2.
[10] abbreviates: Table 2b, derivatives of pyrimidine 11, NA for EC50 > CC50, read-out: EC50.
Setting [11] is: Homo sapiens, MT2, Table of bicyclic-heteroaryl phenyl amines, cytotoxicity, MT-2 cell assays, read-out: IC50.

As usually defined, the IC50 is the concentration that inhibits the measured activity by half. With `CCC(C)=CCOc1cc(Nc2nccs2)ccc1C` (mixture of isomers) [Compound 18b, (E/Z)-N-(4-methyl-3-(3-methylpent-2-enyloxy)phenyl)thiazol-2-amine], the EC50 with IIIB strain of HIV-1 (setting [1]) worked out at 8 µM. For the same compound, in the series with MT-2 human T-cells (setting [2]), the IC50 worked out at 32 µM.
In the case of `CCC(C)=CCOc1cc(Nc2nccs2)ccc1CC` (mixture of isomers) [Compound 18e, (E/Z)-N-(4-ethyl-3-(3-methylpent-2-enyloxy)phenyl)thiazol-2-amine], in the series with IIIB strain of HIV-1 (setting [1]), the EC50 worked out at 10 µM. For the same compound, in the series on MT-2 human T-cells (setting [2]), the IC50 is 29 µM.
On to `CC(C)=CCOc1cccc(Nc2nccs2)c1` [Compound 4a, N-(3-(3-methylbut-2-enyloxy)phenylthiazol)-2-amine], for which, in the series with IIIB strain of HIV-1 (setting [3]), the EC50 is 10 µM. Further, the IC50 in the series with MT-2 human T-cells (setting [4]) is 23 µM.
Regarding `CC(C)=CCOc1cc(Nc2nccs2)ccc1C` [Compound 4b, N-(4-methyl-3-(3-methylbut-2-enyloxy)phenylthiazol)-2-amine], the EC50 in the series on IIIB strain of HIV-1 (setting [3]) and in the series on IIIB strain of HIV-1 (setting [5]) was 3 µM in each case. In addition, the concentration for half-maximal inhibition (IC50) in the series on MT-2 human T-cells (setting [4]) and in the series on MT-2 human T-cells (setting [6]) was 17 µM in each case.
For the compound `COc1ccc(Nc2nccs2)cc1OCC=C(C)C` [Compound 4c, N-(4-methoxy-3-(3-methylbut-2-enyloxy)phenylthiazol)-2-amine], the EC50 in the series on IIIB strain of HIV-1 (setting [3]) worked out at 3.8 µM. In the series with MT-2 human T-cells (setting [4]), the IC50 turned out to be 42 µM.
On to `CC(C)=CCOc1cc(Nc2nccs2)ccc1Cl` [Compound 4d, N-(4-chloro-3-(3-methylbut-2-enyloxy)phenylthiazol)-2-amine], for which the EC50 in the series on IIIB strain of HIV-1 (setting [3]) and with IIIB strain of HIV-1 (setting [5]) was 0.3 µM throughout. Moreover, the IC50 with MT-2 human T-cells (setting [4]) and with MT-2 human T-cells (setting [6]) was 26 µM each time.
Take `CCc1ccc(Nc2nccs2)cc1OCC=C(C)C` [Compound 4e, N-(4-ethyl-3-(3-methylbut-2-enyloxy)phenylthiazol)-2-amine]: in the series on IIIB strain of HIV-1 (setting [3]), the EC50 came to 5 µM. For the same compound, the IC50 in the series with MT-2 human T-cells (setting [4]) is 31 µM.
On the same counts, the results for `CC(C)=CCOc1cc(Nc2nccs2)ccc1C(C)C` [Compound 4g, N-(4-isopropyl-3-(3-methylbut-2-enyloxy)phenylthiazol)-2-amine] are 23 µM and 23 µM.
For `CC(C)=CCOc1cc(Nc2nccs2)ccc1C#N` [Compound 4h, N-(4-cyano-3-(3-methylbut-2-enyloxy)phenylthiazol)-2-amine], the EC50 in the series with IIIB strain of HIV-1 (setting [3]) and with IIIB strain of HIV-1 (setting [5]) was 0.21 µM throughout. Besides, the IC50 in the series on MT-2 human T-cells (setting [4]) and with MT-2 human T-cells (setting [6]) was 0.75 µM in each case.
One may read the CC50 as the concentration that lowers cell viability or growth by half. A higher CC50 goes with lower toxicity to the cells. As for `COc1ncnc(Nc2ccc(Cl)c(OCC=C(C)C)c2)n1` [Compound 7b], in the series on IIIB strain of HIV-1 (setting [7]), the EC50 was 0.031 µM. In addition, it took 18 µM to reach half-maximal cytotoxicity in the series on MT-2 human T-cells (setting [8]) (CC50).
Turning to `CC(C)=CCOc1cc(Nc2ncnc(N)n2)ccc1Cl` [Compound 7c], the EC50 with IIIB strain of HIV-1 (setting [7]) came out at 0.39 µM. Moreover, in the series on MT-2 human T-cells (setting [8]), it took 48 µM to reach half-maximal cytotoxicity (CC50).
On the same counts, the results for `CNc1ncnc(Nc2ccc(Cl)c(OCC=C(C)C)c2)n1` [Compound 7d] are 0.031 µM and 3.1 µM.
Regarding `CC(C)=CCOc1cc(Nc2nc(C)nc(Cl)n2)ccc1Cl` [Compound 7e], the EC50 in the series on IIIB strain of HIV-1 (setting [7]) was 12 µM. In the series on MT-2 human T-cells (setting [8]), this compound had a CC50 of 40 µM.
Regarding `COc1nc(C)nc(Nc2ccc(Cl)c(OCC=C(C)C)c2)n1` [Compound 7g], in the series on IIIB strain of HIV-1 (setting [7]), the EC50 worked out at 0.1 µM. Half-maximal cytotoxicity in the series with MT-2 human T-cells (setting [8]) (CC50) was put at 12 µM.
For the compound `COc1nc(Nc2ccc(Cl)c(OCC=C(C)C)c2)nc(OC)n1` [Compound 7h], the EC50 in the series on IIIB strain of HIV-1 (setting [7]) turned out to be 0.29 µM. In addition, the CC50 with MT-2 human T-cells (setting [8]) is 20 µM.
Consider `COc1nc(Nc2ccc(C#N)c(OCC=C(C)C)c2)nc(OC)n1` [Compound 8h], for which, in the series on IIIB strain of HIV-1 (setting [7]), the EC50 was 0.022 µM. Besides, the CC50 in the series with MT-2 human T-cells (setting [8]) is above 100 µM.
Take `CSc1ncnc(Nc2ccc(C#N)c(OCC=C(C)C)c2)n1` [Compound 8i]: the EC50 in the series with IIIB strain of HIV-1 (setting [7]) stood at 0.005 µM. The compound also yielded a CC50 with MT-2 human T-cells (setting [8]) of 8.4 µM.
On the same counts, the results for `COc1nc(N)nc(Nc2ccc(C#N)c(OCC=C(C)C)c2)n1` [Compound 8j] are 0.009 µM and 0.11 µM.
On the same counts, the results for `CNc1ccnc(Nc2ccc(Cl)c(OCC=C(C)C)c2)n1` [Compound 9d] are 0.006 µM and 0.69 µM.
On the same counts, the results for `COc1cc(OC)nc(Nc2ccc(Cl)c(OCC=C(C)C)c2)n1` [Compound 9h] are 0.25 µM and 28 µM.
Turning to `CSc1ccnc(Nc2ccc(Cl)c(OCC=C(C)C)c2)n1` [Compound 9i], the EC50 with IIIB strain of HIV-1 (setting [7]) was determined as 0.018 µM. Besides, half-maximal cytotoxicity in the series with MT-2 human T-cells (setting [8]) (CC50) was put at 2.8 µM.
On the same counts, the results for `COc1cc(N)nc(Nc2ccc(Cl)c(OCC=C(C)C)c2)n1` [Compound 9j] are 3 µM and 19 µM.
Turning to `CCOc1ccnc(Nc2ccc(Cl)c(OCC=C(C)C)c2)n1` [Compound 9k], the EC50 in the series on IIIB strain of HIV-1 (setting [7]) was 0.041 µM. Also, in the series with MT-2 human T-cells (setting [8]), the CC50 turned out to be 19 µM.
On the same counts, the results for `CCc1ccnc(Nc2ccc(Cl)c(OCC=C(C)C)c2)n1` [Compound 9p] are 0.016 µM and 0.33 µM.
`CC(C)=CCOc1cc(Nc2nc(CO)cs2)ccc1C` [Compound 10b, (2-(4-Methyl-3-(3-methylbut-2-enyloxy)phenylamino)thiazol-4-yl)methanol]: the EC50 in the series with IIIB strain of HIV-1 (setting [9]) is 13 µM. This compound gave an IC50 in the series on MT-2 human T-cells (Homo sapiens, MT2) of 23 µM.
On the same counts, the results for `COc1ccc(Nc2nc(CO)cs2)cc1OCC=C(C)C` [Compound 10c, (2-(4-Methoxy-3-(3-methylbut-2-enyloxy)phenylamino)thiazol-4-yl)methanol] are 9 µM and 80 µM.
As to `CNc1ccnc(Nc2ccc(C#N)c(OCC=C(C)C)c2)n1` [Compound 10d], the EC50 in the series with IIIB strain of HIV-1 (setting [7]) was 0.005 µM. This compound also yielded a CC50 with MT-2 human T-cells (setting [8]) of 0.022 µM.
On the same counts, the results for `COc1cc(OC)nc(Nc2ccc(C#N)c(OCC=C(C)C)c2)n1` [Compound 10h] are 0.16 µM and 0.81 µM.
For `C/C=C/COc1cc(Nc2ncccn2)ccc1Cl` [Compound 11a], the “fold lower potency (higher EC50) than the corresponding DMA ether” value with IIIB strain of HIV-1 is reported as “ca. 10 fold”. Besides, the EC50 with IIIB strain of HIV-1 (setting [10]) was found to be 2.3 µM. This compound had a CC50 with MT-2 human T-cells (Table 2b, MT-2 cells) of 31 µM.
On the same counts, the results for `Clc1ccc(Nc2ncccn2)cc1Oc1ccccc1` [Compound 11b] are “ca. 100 fold”, 13 µM and 30 µM.
For `CC(C)=CC(C)Oc1cc(Nc2ncccn2)ccc1Cl` (centres unmarked) [Compound 46, N-(4-chloro-3-(4-methylpent-3-en-2-yloxy)phenyl)pyrimidin-2-amine], the IC50 with MT-2 human T-cells (Homo sapiens, MT2, Table 2a, cytotoxicity, MT-2 cells, read-out: IC50) was 22 µM.
With `CC1=C(COc2cc(Nc3ncccn3)ccc2Cl)CCC1` [Compound 47], the IC50 in the series with MT-2 human T-cells (Table 2a, cytotoxicity, MT-2 cells, read-out: IC50) came out at 2.5 µM.
Turning to `Cc1ccnc2c1NC(=O)c1cccnc1N2C1CC1` [Nevirapine, nevirapine, reference compound], the IC50 with MT-2 human T-cells (Homo sapiens, MT2, Table 1a, cytotoxicity, MT-2 cells, read-out: IC50) is above 10 µM; with MT-2 human T-cells (setting [11]), above 10 µM. For the same compound, the CC50 with MT-2 human T-cells (setting [8]) was above 10 µM.
With `Cc1cc(C#N)cc(C)c1Oc1nc(Nc2ccc(C#N)cc2)nc(N)c1Br` [TMC125, etravirine, reference compound], the IC50 in the series on MT-2 human T-cells (setting [11]) was above 1 µM. In the series on MT-2 human T-cells (setting [8]), the CC50 is above 1 µM.
As to `Cc1cn([C@H]2C=C[C@@H](CO)O2)c(=O)[nH]c1=O` [d4T, Stavudine, reference compound], the EC50 in the series on IIIB strain of HIV-1 (Human immunodeficiency virus 1, IIIB, text b104, read-out: anti-HIV activities in our assay) was found to be 3 µM.
Turning to “(2-3-(3-Methylbut-2-enyloxy)phenylamino)thiazol-4-yl)methanol [Compound 10a]”, the IC50 in the series with MT-2 human T-cells (Table 2, cytotoxicity, MT-2 cells, read-out: IC50) was 38 µM.
As to “Ethyl 2-(4-methoxy-3-(3-methylbut-2-enyloxy)phenylamino)thiazole-4-carboxylate [Compound 9c]”, in the series on IIIB strain of HIV-1 (setting [7]), the EC50 was 0.075 µM.
“Ethyl 2-(4-methyl-3-(3-methylbut-2-enyloxy)phenylamino)thiazole-4-carboxylate [Compound 9b]”: the EC50 in the series with IIIB strain of HIV-1 (setting [7]) and in the series on IIIB strain of HIV-1 (setting [10]) was 0.01 µM in each case.
